Experimental data reported in US10065990B2, “Cyclic peptide compound, and preparation method, pharmaceutical composition and use thereof” (HANGZHOU GUANYU BIO-MEDICAL CO., LTD, priority 2013, dated 2018).
Read-outs that look alike come from different tables or passages of the source.

Legend:
[1] = system: HCC827 (human non-small cell lung cancer cells); test: MTT cancer cell growth inhibition; format: cell-based; details: MTT, 72 hours incubation, HCC827 cells, read-out: GI50 HCC827
Method in brief: (§1)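 GI50 values come from MTT viability: after 72 h compound exposure (final 10^−5–10^−10 M, three wells each) of cells plated overnight at 1500/well in 10% FBS medium, MTT was given for 4 h. The DMSO-solubilised formazan was then measured at 570 nm.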

[2] = system: lncap (prostate cancer cells); test: MTT cancer cell growth inhibition; format: cell-based; details: MTT, 72 hours incubation, read-out: GI50 lnca
Method in brief: as §1

[3] = system: H1975 (non-small cell lung adenocarcinoma); test: MTT cancer cell growth inhibition; format: cell-based; details: MTT, 72 hours incubation, H1975 cells, read-out: GI50 H1975
Method in brief: as §1

[4] = system: KBM-5 (human chronic myelogenous leukemia); test: MTT cancer cell growth inhibition; format: cell-based; details: MTT, 72 hours incubation, KBM-5 cells, read-out: GI50 KBM-5
Method in brief: as §1

[5] = system: N-87 (human gastric cancer cells); test: MTT cancer cell growth inhibition; format: cell-based; details: MTT, 72 hours incubation, N-87 cells, read-out: GI50 N-87
Method in brief: as §1

[6] = system: PANC-1 (Pac-1, human pancreatic cancer cells); test: MTT cancer cell growth inhibition; format: cell-based; details: MTT, 72 hours incubation, read-out: GI50 PAN
Method in brief: as §1

[7] = system: K562 (human leukemia cells); test: MTT cancer cell growth inhibition; format: cell-based; details: MTT, 72 hours incubation, K562 cells, read-out: GI50 K562
Method in brief: as §1

HDAC11 = target: T1, HDAC11 (Homo sapiens, UniProt Q96DB2); test: HDAC biochemical activity measurement (fluorescent substrate deacetylation);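 further: HDAC11 enzyme acting on an acetyl-lysine fluorogenic substrate, then a developer frees the fluorophore, read at excitation 360 nm and emission 460 nm, IC50 over a compound dilution series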
T1 sequence (Q96DB2 1-347): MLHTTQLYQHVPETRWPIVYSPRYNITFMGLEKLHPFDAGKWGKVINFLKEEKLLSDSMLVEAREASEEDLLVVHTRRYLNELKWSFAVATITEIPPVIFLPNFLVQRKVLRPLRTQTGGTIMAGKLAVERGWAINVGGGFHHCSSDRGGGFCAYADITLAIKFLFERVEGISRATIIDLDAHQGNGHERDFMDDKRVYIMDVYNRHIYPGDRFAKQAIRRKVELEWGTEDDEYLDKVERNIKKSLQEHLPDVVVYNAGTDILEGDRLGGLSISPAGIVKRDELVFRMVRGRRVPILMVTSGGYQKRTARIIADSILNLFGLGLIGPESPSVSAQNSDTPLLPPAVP

HDAC3 = HDAC3 (Homo sapiens, UniProt O15379); test: as above;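 further: fluorogenic acetyl-lysine substrate (20 µM) deacetylated by HDAC3, then developer added for 15 min at room temperature, release of fluorophore read at excitation 360 nm, emission 460 nm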
Chain of HDAC3 (O15379 whole entry, species assumed): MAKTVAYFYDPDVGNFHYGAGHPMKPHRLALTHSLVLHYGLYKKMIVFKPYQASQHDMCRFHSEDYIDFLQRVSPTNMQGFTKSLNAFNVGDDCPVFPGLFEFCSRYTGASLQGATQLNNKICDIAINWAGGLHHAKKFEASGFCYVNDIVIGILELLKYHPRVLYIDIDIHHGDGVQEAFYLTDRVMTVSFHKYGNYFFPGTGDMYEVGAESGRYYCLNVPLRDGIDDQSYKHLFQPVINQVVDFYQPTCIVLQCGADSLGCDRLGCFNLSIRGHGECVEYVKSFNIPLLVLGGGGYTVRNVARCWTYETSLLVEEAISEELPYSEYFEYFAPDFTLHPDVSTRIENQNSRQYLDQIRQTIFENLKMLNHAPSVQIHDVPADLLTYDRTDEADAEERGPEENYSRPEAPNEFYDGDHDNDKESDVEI
Chain of HDAC3 (Q9Y618 395-489 partner limits assumed, species assumed): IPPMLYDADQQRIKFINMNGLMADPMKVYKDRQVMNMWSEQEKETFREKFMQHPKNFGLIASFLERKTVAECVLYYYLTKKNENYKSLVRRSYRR
Method: (§2) The chemical activity of the compound is determined according to the degree of deacetylation inhibition of the HDAC enzyme. This experiment measured the degree of deacetylation related to tumor proliferation and metastasis of HDAC1, HDAC2, HDAC3, HDAC8, HDAC11 five subtypes HDAC enzymes. After the substrate containing an acetylated lysine side chain and HDAC enzyme are labeled with a fluorescent label, the fluorescent substrate is de acetyl. The fluorescent labeled substrate is cleaved by the enzyme, and the fluorescent substance is released, which generates 460 nm emission light under the excitation of 360 nm light.
(§3) HDAC substrate was diluted with reaction buffer to 200M (reaction concentration of 20M), the HDAC enzyme was diluted to the appropriate concentration, then added different concentrations of the test compounds and acted at 37° C. 30 minutes, and then added the same volume of 2-times concentration substrate developing solution (developer), incubated at room temperature for 15 minutes.

HDAC8 = target: T2, HDAC8 (Homo sapiens, UniProt Q9BY41); test: as above; details: 37° C. 30 minutes
T2 sequence (Q9BY41 1-377): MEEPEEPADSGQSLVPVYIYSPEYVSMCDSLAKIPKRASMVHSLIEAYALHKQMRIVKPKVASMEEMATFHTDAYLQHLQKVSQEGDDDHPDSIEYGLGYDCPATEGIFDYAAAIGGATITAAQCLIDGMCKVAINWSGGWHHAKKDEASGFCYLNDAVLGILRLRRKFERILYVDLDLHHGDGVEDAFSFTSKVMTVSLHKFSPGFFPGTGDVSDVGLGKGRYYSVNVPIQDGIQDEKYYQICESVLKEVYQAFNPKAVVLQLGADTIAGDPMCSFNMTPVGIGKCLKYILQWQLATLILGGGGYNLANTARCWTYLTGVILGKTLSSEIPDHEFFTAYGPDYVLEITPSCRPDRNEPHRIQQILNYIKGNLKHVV
Method: as §2, §3

[8] = read-out: IC50 HDAC11, HDAC11, 37° C. 30 minutes
[9] = read-out: IC50 HDAC3, HDAC3, 37° C. 30 minutes
[10] = Homo sapiens, LNCaP, 72 h, lncap cells
[11] = Homo sapiens, PANC-1, 72 h, PANC-1 cells

SMILES	GI50 ([1]; Homo sapiens, HCC827, 72 h)	GI50 ([2]; Homo sapiens, LNCaP, 72 h)	GI50 ([3]; Homo sapiens, NCI-H1975, 72 h)	GI50 ([4]; Homo sapiens, KBM5, 72 h)	GI50 ([5]; Homo sapiens, 72 h)	GI50 ([6]; Homo sapiens, PANC-1, 72 h)	GI50 ([7]; Homo sapiens, K562, 72 h)	IC50 (HDAC11; [8])	IC50 (HDAC3; [9])	IC50 (HDAC8)	IC50 (HDAC11)	IC50 (HDAC3)	GI50 [2, 10]	GI50 [6, 11]	also measured
C/C=C1\NC(=O)c2cc(F)cc(n2)CNC(=O)C[C@@H](/C=C/CCSC(=O)CCCCCCC)OC(=O)[C@H](CC)NC1=O [Compound 55]	81 nM	20 nM	52 nM	89 nM	55 nM	80 nM	36 nM	83 nM	35 nM	43 nM	–	–	–	–	–
C/C=C1\NC(=O)c2cc(F)cc(n2)CNC(=O)C[C@@H](/C=C/CCSC(C)=O)OC(=O)[C@H](CC)NC1=O [Compound 58]	49 nM	30 nM	61 nM	69 nM	61 nM	40 nM	26 nM	97 nM	29 nM	51 nM	–	–	–	–	–
C/C=C1\NC(=O)c2cc(F)cc(n2)CNC(=O)C[C@@H](/C=C/CCSC(=O)CCCCCCC)OC(=O)[C@H](C)NC1=O [Compound 61]	67 nM	30 nM	53 nM	81 nM	75 nM	60 nM	34 nM	83 nM	38 nM	38 nM	–	–	–	–	–
C/C=C1\NC(=O)c2nc(ccc2C)CNC(=O)C[C@@H](/C=C/CCSC(C)=O)OC(=O)[C@H](Cc2ccccc2)NC1=O [Compound 66]	34 nM	30 nM	27 nM	91 nM	61 nM	30 nM	37 nM	94 nM	31 nM	26 nM	–	–	–	–	–
C/C=C1\NC(=O)c2nc(ccc2F)CNC(=O)C[C@@H](/C=C/CCSC(C)=O)OC(=O)[C@H](CCCCN)NC1=O [Compound 72]	61 nM	30 nM	34 nM	49 nM	61 nM	60 nM	33 nM	276 nM	135 nM	453 nM	–	–	–	–	–
C/C=C1\NC(=O)c2cc(F)cc(n2)CNC(=O)C[C@@H](/C=C/CCSC(C)=O)OC(=O)[C@H](CCCCNC(=O)OCC2c3ccccc3-c3ccccc32)NC1=O [Compound 76]	72 nM	20 nM	34 nM	94 nM	32 nM	70 nM	17 nM	94 nM	42 nM	28 nM	–	–	–	–	–
C/C=C1\NC(=O)c2cc(F)cc(n2)CNC(=O)C[C@@H](/C=C/CCSC(C)=O)OC(=O)[C@H](C(C)C)NC1=O [Compound 94]	84 nM	30 nM	34 nM	61 nM	37 nM	80 nM	–	–	–	28 nM	91 nM	28 nM	–	–	GI50 [7]: 39 nM
C/C=C1\NC(=O)c2nc(F)cc(n2)CNC(=O)C[C@@H](/C=C/CCSC(C)=O)OC(=O)[C@H](C(C)C)NC1=O [Compound 98]	–	–	–	–	–	–	–	89 nM	62 nM	61 nM	–	–	–	–	GI50 [1]: 35 nM; GI50 [2]: 20 nM; GI50 [3]: 81 nM; GI50 [4]: 29 nM; GI50 [5]: 21 nM; GI50 [6]: 80 nM; GI50 [7]: 37 nM
C/C=C1\NC(=O)c2nc(ccc2F)CCNC(=O)C[C@@H](/C=C/CCSC(C)=O)OC(=O)[C@H](C(C)C)NC1=O [Compound 103]	55 nM	20 nM	26 nM	31 nM	51 nM	80 nM	34 nM	–	–	16 nM	93 nM	53 nM	–	–	–
C/C=C1\NC(=O)c2cc(F)cc(n2)CCNC(=O)C[C@@H](/C=C/CCSC(C)=O)OC(=O)[C@H](C(C)C)NC1=O [Compound 104]	49 nM	30 nM	38 nM	79 nM	96 nM	90 nM	33 nM	–	–	19 nM	83 nM	43 nM	–	–	–
C/C=C1\NC(=O)c2cccc(n2)CNC(=O)C[C@@H](/C=C/CCS)OC(=O)[C@@H](C)NC1=O [Compound 145]	78 nM	40 nM	31 nM	8 nM	31 nM	60 nM	32 nM	–	–	29 nM	83 nM	26 nM	–	–	–
C/C=C1\NC(=O)c2nc(ccc2SC)CNC(=O)C[C@@H](/C=C/CCSC(=O)CCCCCCC)OC(=O)[C@H](C(C)C)NC1=O [Compound 147]	28 nM	–	26 nM	23 nM	83 nM	–	37 nM	–	–	28 nM	86 nM	51 nM	50 nM	50 nM	–
C/C=C1\NC(=O)c2cc(SC)cc(n2)CNC(=O)C[C@@H](/C=C/CCSC(=O)CCCCCC)OC(=O)[C@H](C(C)C)NC1=O [Compound 151]	38 nM	–	58 nM	31 nM	46 nM	–	67 nM	–	–	38 nM	95 nM	23 nM	70 nM	40 nM	–
C/C=C1\NC(=O)c2nc(ccc2SC)CNC(=O)C[C@@H](/C=C/CCSC(=O)CCCCC)OC(=O)[C@H](C(C)C)NC1=O [Compound 153]	28 nM	–	31 nM	28 nM	28 nM	–	32 nM	–	–	28 nM	72 nM	36 nM	50 nM	20 nM	–
C/C=C1\NC(=O)c2nc(ccc2SC)CNC(=O)C[C@@H](/C=C/CCSC=O)OC(=O)[C@H](C(C)C)NC1=O [Compound 168]	35 nM	–	66 nM	22 nM	94 nM	–	34 nM	–	–	13 nM	99 nM	34 nM	20 nM	60 nM	–
C/C=C1\NC(=O)c2cc(SC)cc(n2)CNC(=O)C[C@@H](/C=C/CCSC=O)OC(=O)[C@H](C(C)C)NC1=O [Compound 169]	29 nM	–	44 nM	51 nM	55 nM	–	37 nM	–	–	15 nM	92 nM	16 nM	50 nM	40 nM	–
C/C=C1\NC(=O)c2nc(ccc2SC)CNC(=O)C[C@@H](/C=C/CCSC(=O)CCCCCCC)OC(=O)[C@H](CC)NC1=O [Compound 171]	23 nM	–	71 nM	33 nM	39 nM	–	46 nM	–	–	35 nM	95 nM	18 nM	50 nM	10 nM	–
